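The compound was tested at five concentrations on cells cultured in 96-well plates, with a 48-hour exposure period. GI50 marks 50% less growth.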 Calls of active or inactive are those of the source. Rule as the data show it: active = GI50 up to about 1.1 µM and inactive = higher.
Key:
Test in all cases: NCI-60 cell line screen, 48 h
RXF 393 = tested on: RXF 393
SNB-19 = tested on: SNB-19
NCI/ADR-RES = tested on: NCI/ADR-RES
IGROV-1 = tested on: IGROV-1
SN12C = tested on: SN12C
CCRF-CEM = tested on: CCRF-CEM
NCI-H460 = tested on: NCI-H460
MDA-N = tested on: MDA-N
SF-539 = tested on: SF-539
HCT-116 = tested on: HCT-116
ACHN = tested on: ACHN
SNB-75 = tested on: SNB-75
MDA-MB-231 = tested on: MDA-MB-231
UO-31 = tested on: UO-31
PC-3 = tested on: PC-3
SF-268 = tested on: SF-268
Malme-3M = tested on: Malme-3M
U-251 = tested on: U-251
Hs-578T = tested on: Hs-578T
A498 = tested on: A498

SMILES | GI50 (RXF 393) | GI50 (SNB-19) | GI50 (NCI/ADR-RES) | GI50 (IGROV-1) | GI50 (SN12C) | GI50 (CCRF-CEM) | GI50 (NCI-H460) | GI50 (MDA-N) | GI50 (SF-539) | GI50 (HCT-116) | GI50 (ACHN) | GI50 (SNB-75) | GI50 (MDA-MB-231) | GI50 (UO-31) | GI50 (PC-3) | GI50 (SF-268) | GI50 (Malme-3M) | GI50 (U-251) | GI50 (Hs-578T) | GI50 (A498)
Cc1cccc(/N=N/C(=N\NC(=O)c2cc(Cl)ccc2O)c2ccc(N(CCC#N)CCC#N)cc2C)c1 | 30.4 µM (inactive) | 35.1 µM (inactive) | 45.1 µM (inactive) | 14.6 µM (inactive) | 24 µM (inactive) | 8.79 µM (inactive) | 26.1 µM (inactive) | 55.6 µM (inactive) | 33.3 µM (inactive) | 33 µM (inactive) | 34.7 µM (inactive) | 37.9 µM (inactive) | 21.2 µM (inactive) | 21.9 µM (inactive) | 25.8 µM (inactive) | 30.1 µM (inactive) | 28.1 µM (inactive) | 36.1 µM (inactive) | 77.6 µM (inactive) | –
c1ccc(C(=NNc2nc3ccccc3[nH]2)c2ccccn2)nc1 | 0.197 µM (active) | 0.33 µM (active) | 0.115 µM (active) | 0.112 µM (active) | 0.128 µM (active) | 0.0313 µM (active) | 0.134 µM (active) | 0.394 µM (active) | 0.177 µM (active) | 0.0832 µM (active) | 0.114 µM (active) | 0.218 µM (active) | 0.166 µM (active) | 0.0847 µM (active) | 0.224 µM (active) | 0.13 µM (active) | – | 0.171 µM (active) | 7.53 µM (inactive) | 0.36 µM (active)
O=C(O)c1ccccc1CC1Cc2ccccc2C1 | > 100 µM (inactive) | > 100 µM (inactive) | > 100 µM (inactive) | > 100 µM (inactive) | > 100 µM (inactive) | > 100 µM (inactive) | > 100 µM (inactive) | > 100 µM (inactive) | > 100 µM (inactive) | > 100 µM (inactive) | > 100 µM (inactive) | > 100 µM (inactive) | > 100 µM (inactive) | > 100 µM (inactive) | > 100 µM (inactive) | > 100 µM (inactive) | > 100 µM (inactive) | > 100 µM (inactive) | > 100 µM (inactive) | –
Cc1ccc(Cl)c2c(=O)c3ccc(N)cc3sc12 | 22.1 µM (inactive) | 27.9 µM (inactive) | 15.1 µM (inactive) | 10 µM (inactive) | 15.7 µM (inactive) | 14.7 µM (inactive) | 31.9 µM (inactive) | 30.1 µM (inactive) | 16 µM (inactive) | 16.9 µM (inactive) | 21.4 µM (inactive) | 13.6 µM (inactive) | 22.2 µM (inactive) | 13.9 µM (inactive) | 25 µM (inactive) | 27.9 µM (inactive) | – | – | 10.4 µM (inactive) | 17 µM (inactive)
[B].c1ccc([Si](OCCN2CC2)(c2ccccc2)c2ccccc2)cc1 | 4.46 µM (inactive) | 0.436 µM (active) | 14.1 µM (inactive) | 12.9 µM (inactive) | 14.3 µM (inactive) | 18.7 µM (inactive) | 12.5 µM (inactive) | 14.9 µM (inactive) | 14 µM (inactive) | 14.6 µM (inactive) | 14.8 µM (inactive) | – | 14.9 µM (inactive) | 15.2 µM (inactive) | 13.5 µM (inactive) | 11 µM (inactive) | 14.9 µM (inactive) | 14 µM (inactive) | 12.4 µM (inactive) | –
C/N=c1/oc2ccccc2cc1C(N)=O | > 100 µM (inactive) | 56.4 µM (inactive) | > 100 µM (inactive) | 53.3 µM (inactive) | > 100 µM (inactive) | > 100 µM (inactive) | > 100 µM (inactive) | > 100 µM (inactive) | > 100 µM (inactive) | > 100 µM (inactive) | > 100 µM (inactive) | > 100 µM (inactive) | > 100 µM (inactive) | 58.2 µM (inactive) | > 100 µM (inactive) | > 100 µM (inactive) | – | > 100 µM (inactive) | 16.9 µM (inactive) | –
Nc1ccc2nc(N)n[n+]([O-])c2c1 | – | > 100 µM (inactive) | > 100 µM (inactive) | > 100 µM (inactive) | > 100 µM (inactive) | > 100 µM (inactive) | > 100 µM (inactive) | > 100 µM (inactive) | > 100 µM (inactive) | > 100 µM (inactive) | > 100 µM (inactive) | 92.7 µM (inactive) | > 100 µM (inactive) | > 100 µM (inactive) | > 100 µM (inactive) | > 100 µM (inactive) | – | > 100 µM (inactive) | > 100 µM (inactive) | > 100 µM (inactive)
Nc1nc(Cl)c2nnn(CC3CCC(CO)C3)c2n1 (stereo unspecified) | > 100 µM (inactive) | > 100 µM (inactive) | > 100 µM (inactive) | – | > 100 µM (inactive) | > 100 µM (inactive) | – | > 100 µM (inactive) | > 100 µM (inactive) | > 100 µM (inactive) | > 100 µM (inactive) | > 100 µM (inactive) | > 100 µM (inactive) | > 100 µM (inactive) | > 100 µM (inactive) | > 100 µM (inactive) | – | > 100 µM (inactive) | > 100 µM (inactive) | > 100 µM (inactive)
CCOC(=O)C1C/C(C)=C(/C)SCCCS1 (stereo unspecified) | > 100 µM (inactive) | > 100 µM (inactive) | > 100 µM (inactive) | > 100 µM (inactive) | > 100 µM (inactive) | – | > 100 µM (inactive) | > 100 µM (inactive) | > 100 µM (inactive) | 50.2 µM (inactive) | > 100 µM (inactive) | – | > 100 µM (inactive) | > 100 µM (inactive) | > 100 µM (inactive) | > 100 µM (inactive) | > 100 µM (inactive) | > 100 µM (inactive) | > 100 µM (inactive) | > 100 µM (inactive)
N#Cc1c(=O)c2ccccc2n2ccccc12 | – | 83.6 µM (inactive) | > 100 µM (inactive) | > 100 µM (inactive) | > 100 µM (inactive) | > 100 µM (inactive) | > 100 µM (inactive) | > 100 µM (inactive) | – | > 100 µM (inactive) | > 100 µM (inactive) | > 100 µM (inactive) | > 100 µM (inactive) | 97.9 µM (inactive) | 19.7 µM (inactive) | > 100 µM (inactive) | > 100 µM (inactive) | > 100 µM (inactive) | > 100 µM (inactive) | > 100 µM (inactive)
O=C1C(Cl)=C(N(C(=O)c2ccccc2)C(=O)c2ccccc2)C(=O)c2ccccc21 | 3.66 µM (inactive) | 26.6 µM (inactive) | 29.2 µM (inactive) | 19.4 µM (inactive) | 18.3 µM (inactive) | 2.84 µM (inactive) | 5.12 µM (inactive) | 13.1 µM (inactive) | 4.3 µM (inactive) | 4.12 µM (inactive) | 3.17 µM (inactive) | 3.68 µM (inactive) | 9.71 µM (inactive) | 3.39 µM (inactive) | 9.18 µM (inactive) | 2.48 µM (inactive) | – | 5.98 µM (inactive) | 4.8 µM (inactive) | > 100 µM (inactive)
CCOC(=O)C1C(=O)C=C(c2cc(C)ccc2O)CC1c1cccc(Br)c1 (stereo unspecified) | 14.4 µM (inactive) | 13.4 µM (inactive) | 13.4 µM (inactive) | 12.6 µM (inactive) | 16.9 µM (inactive) | 19.4 µM (inactive) | 19.5 µM (inactive) | 4.05 µM (inactive) | 16.2 µM (inactive) | 18 µM (inactive) | 18.7 µM (inactive) | – | 19.6 µM (inactive) | 20.9 µM (inactive) | 7.8 µM (inactive) | 19.5 µM (inactive) | 16.3 µM (inactive) | 16.1 µM (inactive) | 14.8 µM (inactive) | –
O=C(O)Cn1ccc(=O)c2c([N+](=O)[O-])cccc21 | – | > 100 µM (inactive) | > 100 µM (inactive) | > 100 µM (inactive) | > 100 µM (inactive) | > 100 µM (inactive) | > 100 µM (inactive) | > 100 µM (inactive) | > 100 µM (inactive) | > 100 µM (inactive) | > 100 µM (inactive) | > 100 µM (inactive) | > 100 µM (inactive) | > 100 µM (inactive) | > 100 µM (inactive) | > 100 µM (inactive) | > 100 µM (inactive) | > 100 µM (inactive) | > 100 µM (inactive) | > 100 µM (inactive)
[N-]=[N+]=NC1CC(n2ccc(N)nc2=O)OC1COP(=O)(O)OP(=O)(O)OP(=O)(O)O (stereo unspecified) | > 100 µM (inactive) | > 100 µM (inactive) | > 100 µM (inactive) | > 100 µM (inactive) | > 100 µM (inactive) | > 100 µM (inactive) | > 100 µM (inactive) | > 100 µM (inactive) | > 100 µM (inactive) | > 100 µM (inactive) | > 100 µM (inactive) | > 100 µM (inactive) | > 100 µM (inactive) | > 100 µM (inactive) | > 100 µM (inactive) | > 100 µM (inactive) | > 100 µM (inactive) | > 100 µM (inactive) | > 100 µM (inactive) | –
O=S(=O)(c1ccc(/N=N/O)nc1)c1ccc2ccccc2c1 | – | > 100 µM (inactive) | > 100 µM (inactive) | 54.8 µM (inactive) | 95.5 µM (inactive) | 29.3 µM (inactive) | 65.8 µM (inactive) | > 100 µM (inactive) | > 100 µM (inactive) | > 100 µM (inactive) | > 100 µM (inactive) | 22.1 µM (inactive) | > 100 µM (inactive) | 23.1 µM (inactive) | 38.5 µM (inactive) | > 100 µM (inactive) | 26.5 µM (inactive) | > 100 µM (inactive) | > 100 µM (inactive) | > 100 µM (inactive)

From ChEMBL document CHEMBL1201862, “PubChem BioAssay data set” (2004)
